Data set [1] is described as follows: Quantum yield determination (absolute, integrating sphere).
Protocol: Unless otherwise noted, Φf values were measured in PBS, pH 7.4. This instrument uses an integrating sphere to determine photons absorbed and emitted by a sample. Measurements were carried out using dilute samples (A<0.1) and self-absorption corrections^24 were performed using the instrument software. Reported values are averages (n=3).
A short description of data set [2]: UV-vis and fluorescence spectroscopy. As to conditions: for absorptivity, quantum yield and brightness in nonpolar conditions relative to PBS: SDS micelles and dioxane:water mixtures.
Protocol: Spectroscopy was performed using 1-cm path length, 3.5-mL quartz cuvettes from Starna Cells. All measurements were taken at ambient temperature (22±2° C.). […] Fluorescence spectra were recorded on a Cary Eclipse fluorometer (Varian). Unless otherwise noted, maximum absorption wavelength (λabs), extinction coefficient (ε), and maximum emission wavelength (λem) were measured in PBS, pH 7.4. Reported values and spectra are averages (n=3).
The test system of data set [3] is mitochondria of live U2OS cells. The data set is described as follows: Cellular retention after dye-free media exchange washes. It counts as cell-based. As to conditions: 1 h, 37° C., 0, 1 or 2 dye-free media washes. On the procedure: To compare cellular retention of 15, 20, and MitoView 405, U2OS cells were incubated with 15 (200 nM), 20 (200 nM) or MitoView 405 (100 nM; Biotium) for 1 h at 37° C.

Data set [4] can be described thus: Photochemistry under 405 nm illumination, analysis by LC-MS. As to conditions: PBS, 5 and 20 min. It counts as physicochemical. On the procedure: To investigate photochemistry, solutions of 8, 11, and 13-15 (100 μM) were prepared in PBS and placed in a glass vial. An aliquot of this freshly prepared solution was immediately analyzed by LC-MS (−hv). The solution was then irradiated with 405 nm light from an LED array (LOCTITE CL20 flood array) for 5 min (t=5 min) and 20 min (t=20 min) followed by analysis using LC-MS. Photochemical adducts 17/17i and 18/18i were purified and the spectral properties of these isomeric mixtures were analyzed. These compounds were then treated with 1 or 2 equivalents of NaOH(aq) to hydrolyze the iminium bond; the resulting oxidized coumarin products S1/S1i and S2/S2i were observed by LC-MS.

The nature of data set [5]: Chemical stability by fluorescence in different buffers and media. It counts as physicochemical. As to conditions: 1 μM; citrate pH 5, PBS pH 7.4, Tris pH 9, DMEM, DMEM+10% FBS. On the procedure:
Measurement of chemical stability by fluorescence (FIG. 5A-5B). To compare the chemical stability of 15 in different conditions using changes in fluorescence, samples (1 μM) of 15 were prepared in the following solutions: citrate buffer, pH 5; PBS, pH 7.4; Tris buffer, pH 9; DMEM; and DMEM containing 10% v/v FBS (DMEM+FBS). 200 μL of each solution (n=3) was placed in a black, clear-bottom 96-well microplate (Nunc, 165305) and sealed with an adhesive film. The fluorescence of the DAB dye was monitored using 445 nm excitation and 510-550 nm emission (integrated signal) reading from the bottom of the plate using a TECAN Spark microplate reader controlled with SparkControl software.

The next data set relates to U2OS cells. Briefly: In-cell photostability experiments. Particulars: 405 nm laser, 15 photobleaching cycles. It counts as cell-based. How it is done: In-cell photostability experiments (FIG. 9C). U2OS cells were incubated with 15 (200 nM), 20 (200 nM) or MitoView 405 (100 nM; Biotium) for 1 h at 37° C. and imaged live without washing using a Leica SP8 Falcon confocal microscope with enabled adaptive focus control (AFC), an HC PL-APO 86×/1.20 water objective, and a 405 nm diode laser at 58.9% laser power. […] These images were processed using FIJI.^25

A short description of data set [6]: Chemical stability (iminium hydrolysis) by LC-MS. It counts as physicochemical. As to conditions: 25 μM; citrate pH 5, PBS pH 7.4, Tris pH 9; sampled every 30 min over 12 h. On the procedure:
Measurement of chemical stability and photostability by tandem high-pressure liquid chromatography-mass spectrometry (LC-MS; FIG. 3A-D, FIG. 4A-4D, FIG. 6, FIG. 10). To examine the chemical stability and photostability of the DAB dyes, samples were assessed by tandem high-pressure liquid chromatography-mass spectrometry (LC-MS) using an Agilent 1200 LC-MS system equipped with an autosampler, diode array detector, and mass spectrometry detector (ESI; positive ion mode) using a 4.6×150 mm Gemini NX-C18 column with a 5-95% or 5-50% gradient of CH3CN in H2O containing constant 0.1% (v/v) TFA. Chromatograms were monitored using absorbance at 254 nm or 400 nm. To investigate chemical hydrolysis, solutions of 8, 11, and 13-15 (100 μM) were prepared in PBS, pH 7.4. An aliquot of this freshly prepared solution was immediately analyzed by LC-MS (t=0). The solution was then incubated at ambient temperature protected from light for 48 h and analyzed again by LC-MS (t=48 h). Standard samples of coumarins 6, 10, and 12 (100 μM, PBS) were analyzed in the same manner. To compare the stability of compounds 15 and 20 under different conditions, solutions of each dye (25 μM) in citrate buffer, pH 5, PBS, pH 7.4, or Tris buffer, pH 9 were prepared in an autosampler vial and the sample was analyzed using the LC-MS instrumentation every 30 min. […]

The values below come from patent US12528944B2, “Live-cell fluorescent mitochondrial stains” (HOWARD HUGHES MEDICAL INSTITUTE, priority 2022, dated 2026).

Entries after “also recorded” stand apart in the source; their conditions may differ.

For `CCN(CC)c1ccc2c(C)cc(=O)oc2c1` [Compound 6, 7-diethylamino-4-methylcoumarin, reference compound], in data set [1] (PBS, pH 7.4), the “fluorescence quantum yield (Φf)” value was determined as 0.06.

Consider `CCN(CC)c1ccc2c(C)cc(N(CC)CC)[o+]c2c1.O=C([O-])C(F)(F)F` [Compound 8, 2,7-Bis(diethylamino)-4-methylbenzopyrylium trifluoroacetate], for which, in data set [1] (PBS, pH 7.4), the “fluorescence quantum yield (Φf)” value is 0.16. Further, in data set [2] (PBS, pH 7.4), the Stokes shift came out at 65 nm, the “bathochromic shift in λabs relative to parent coumarin” value is reported as 45 nm and the “shift in λem relative to parent coumarin” value is reported as 26 nm.

Turning to `Cc1cc(=[N+]2CCCCC2)oc2c3c4c(cc12)CCCN4CCC3.O=C([O-])C(F)(F)F` [Compound 15, 1-(9-methyl-2,3,6,7-tetrahydro-1H,5H,11H-pyrano[2,3-f]pyrido[3,2,1-ij]quinolin-11-ylidene)piperidin-1-ium trifluoroacetate], the “cellular signal upon media exchange (retention)” value in data set [3] (trifluoroacetate) is reported as “rapidly decreased upon media exchange; also recorded: signal rapidly decreased”. Further, the photochemical oxidation result in data set [4] was “no photochemically driven oxidation was detected on the piperidine ring”. In data set [5], the “rate of hydrolysis in different buffer conditions” value is “modestly higher rates of hydrolysis was observed at elevated pH or in cell culture media containing serum”. Besides, the “absorptivity, quantum yield and brightness in nonpolar conditions relative to PBS” value in data set [2] was “higher absorptivity and fluorescence quantum yield”.

Turning to `Cc1cc(N2CCC2)[o+]c2cc(N3CCC3)ccc12.O=C([O-])C(F)(F)F` [Compound 11, 2,7-Di(azetidin-1-yl) 4-methylbenzopyrylium trifluoroacetate], the “fluorescence quantum yield (Φf)” value in data set [1] (PBS, pH 7.4) came out at 0.79. Further, in data set [2] (PBS, pH 7.4), the Stokes shift amounted to 99 nm, the “bathochromic shift in λabs relative to parent coumarin” value turned out to be 48 nm and the “shift in λem relative to parent coumarin” value amounted to 34 nm.

With `CC[N+](CC)=c1cc(C)c2cc3c4c(c2o1)CCCN4CCC3.O=C([O-])C(F)(F)F` [Compound 13, N-ethyl-N-(9-methyl-2,3,6,7-tetrahydro-1H,5H,11H-pyrano[2,3-f]pyrido[3,2,1-ij]quinolin-11-ylidene)ethanaminium trifluoroacetate], in data set [2] (PBS, pH 7.4), the Stokes shift amounted to 68 nm and the “maximum fluorescence emission wavelength (λem)” value came out at 513 nm.

In the case of `Cc1cc(=[N+]2CCC(CCCC3CC[N+](=c4cc(C)c5cc6c7c(c5o4)CCCN7CCC6)CC3)CC2)oc2c3c4c(cc12)CCCN4CCC3.O=C([O-])C(F)(F)F.O=C([O-])C(F)(F)F` (stereo not shown) [Compound 20, 4,4′-(propane-1,3-diyl)bis(1-(9-methyl-2,3,6,7-tetrahydro-1H,5H,11H-pyrano[2,3-f]pyrido[3,2,1-ij]quinolin-11-ylidene)piperidin-1-ium) trifluoroacetate], in the data set on U2OS cells, the “resistance to photobleaching in live cells” value is given as “best overall photostability”. Moreover, in data set [3], the “cellular signal upon media exchange (retention)” value is given as “retained”. In data set [6], the “rate of hydrolysis relative to 15” value is recorded as “slightly higher rate of hydrolysis”. The “fluorescence quantum yield (Φf)” value in data set [1] (PBS containing 0.1% w/v SDS) came to 0.83; in data set [1] (PBS, pH 7.4) it was 0.45. The “extinction coefficient at λabs (ε)” value was 78,900 M^−1 cm^−1 in data set [2] (PBS containing 0.1% w/v SDS) and 45,200 M^−1 cm^−1 in data set [2] (aqueous solution (PBS, pH 7.4)). In addition, the “maximum absorption wavelength (λabs)” value in data set [2] (PBS, pH 7.4) turned out to be 447 nm. Further, in data set [2] (PBS, pH 7.4), the “maximum fluorescence emission wavelength (λem)” value was 524 nm. Further, the “absorptivity, quantum yield and brightness in nonpolar conditions relative to PBS” value in data set [2] was “brighter in dioxane:water mixtures”.
